Columns and labels:
Format in all cases: in vivo
[1] = system: Setaria faberi (SETFA); assay: Test 1A glasshouse assay for herbicidal activity, post-emergence; conditions: 312 h, evaluated after 13 days, read-out: percentage phytotoxicity SETFA
Procedure, shortened: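 Glasshouse spray test with visual phytotoxicity scoring (0–100%) after 13 days. Application timing: 1 day after sowing or after 8 days' cultivation, in 0.5% Tween 20 acetone/water.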

[2] = system: Beta vulgaris (BEAVA, sugar beet); assay: Test 1B glasshouse assay for herbicidal activity, pre-emergence; conditions: 480 h, 125 g/ha, 20 DAA, read-out: percentage phytotoxicity BEAVA
Method: (§1) Seeds of a variety of monocotyledonous and dicotyledonous test plants are sown in standard soil in pots. The plants are cultivated for one day (for pre-emergence) or for about 12 days (range=10-13 days) (for post-emergence) under controlled conditions in a glasshouse (warm climate species at 24/18° C., cool climate species at 20/16° C., both at day/night; 16 hours light; 65% humidity).
(§2) An “instant formulation”, known as the “IF50”, containing 50 g/liter (i.e. 5% w/v) of the “technical” (i.e. unformulated) active ingredient is prepared by dissolving the active ingredient in a mixture of organic solvents and emulsifier, details of which are provided in the Table below. This IF50 is then mixed with a small, variable amount of acetone to aid dissolution, before addition of a 0.2% v/v aqueous solution of the adjuvant X-77 (which is a mixture of alkyl aryl polyoxyethylene glycols and free fatty acids in isopropanol, CAS Registry number 11097-66-8), as the aqueous diluent, to form an aqueous spray solution which contains a predetermined concentration of the active ingredient (which varies depending on the application rate of the active ingredient to the plants) and 0.2% v/v of the adjuvant X-77. This aqueous spray solution is then sprayed onto the plants, after one day's cultivation (for pre-emergence) or after about 12 days' cultivation (for post-emergence).
(§3) The test plants are then grown on, in a glasshouse (greenhouse) under controlled conditions (at either 24/18° C. or 20/16° C. (day/night) as mentioned above; 16 hours light; 65% humidity) and are watered twice daily. Either 15 days after application of the herbicide (15 DAA) (for post-emergence), or 20 days after application of the herbicide (20 DAA) (for pre-emergence), the test plants are evaluated visually, and an assessed percentage phytotoxicity score is given for each herbicidal application on each plant species (where 100%=total damage to plant; 0%=no damage to plant).
(§4) Cool climate crop plants: Triticum aestivum (TRZAW, winter wheat), Brassica napus (BRSNN, rape, also called oilseed rape or rapeseed), Beta vulgaris (BEAVA, sugar beet).

[3] = system: Brassica napus (BRSNN, rape); assay: as above; conditions: 480 h, 125 g/ha, 20 DAA, read-out: percentage phytotoxicity BRSNN
Method: as §1, §2, §3, §4

[4] = system: Triticum aestivum (TRZAW, winter wheat); assay: as above; conditions: 480 h, 125 g/ha, 20 DAA, read-out: percentage phytotoxicity TRZAW
Method: as §1, §2, §3, §4

[5] = system: Glycine max (GLXMA, soybean); assay: as above; conditions: 480 h, 125 g/ha, 20 DAA, read-out: percentage phytotoxicity GLXMA
Method: as §1, §2, §3
(§5) Warm climate crop plants: Glycine max (GLXMA, soybean).

[6] = system: Beta vulgaris (BEAVA, sugar beet); assay: Test 1B glasshouse assay for herbicidal activity, post-emergence; conditions: 360 h, 30 g/ha application rate
Method: as §1, §2, §3, §4

[7] = system: Brassica napus (BRSNN, rape); assay: as above; conditions: 360 h, 30 g/ha application rate
Method: as §1, §2, §3, §4

[8] = system: Triticum aestivum (TRZAW, winter wheat); assay: as above; conditions: 360 h, 30 g/ha application rate
Method: as §1, §2, §3, §4

[9] = system: Glycine max (GLXMA, soybean); assay: as above; conditions: 360 h, 30 g/ha application rate
Method: as §1, §2, §3, §5

[10] = system: Alopecurus myosuroides (ALOMY); assay: as above; conditions: 360 h, 30 g/ha application rate
Method: as §1, §2, §3
(§6) Cool climate (“cool season”) grassy monocotyledonous weeds: Alopecurus myosuroides (ALOMY), Avena fatua (AVEFA), Lolium perenne (LOLPE).

[11] = system: Avena fatua (AVEFA); assay: as above; conditions: 360 h, 30 g/ha application rate
Method: as §1, §2, §3, §6

[12] = system: Lolium perenne (LOLPE); assay: as above; conditions: 360 h, 30 g/ha application rate
Method: as §1, §2, §3, §6

[13] = system: Digitaria sanguinalis (DIGSA); assay: as above; conditions: 360 h, 30 g/ha application rate
Method: as §1, §2, §3
(§7) Warm climate (“warm season”) grassy monocotyledonous weeds: Setaria faberi (SETFA), SORVU (Sorghum bicolor (L.) Moench ssp. Bicolor, or Sorghum vulgare Pers.), Digitaria sanguinalis (DIGSA), Echinochloa crus-galli (ECHCG), and Brachiaria plantaginea (BRAPL).

[14] = system: SORVU (Sorghum bicolor (L.) Moench ssp. Bicolor, or Sorghum vulgare Pers.); assay: as above; conditions: 360 h, 30 g/ha application rate
Method: as §1, §2, §3, §7

[15] = system: Setaria faberi (SETFA); assay: as above; conditions: 360 h, 30 g/ha application rate
Method: as §1, §2, §3, §7

[16] = system: Echinochloa crus-galli (ECHCG); assay: as above; conditions: Echinochloa crus-galli, 30 g/ha application rate
Method: as §1, §2, §3, §7
Note: The herbicidal activity data (e.g. post-emergence) shown above in Biological Example 1B for Comparator compounds X-9 and X-10 is thought likely to have been measured some years ago, probably using a variant of the above-described test method. Also, for the post-emergence activity of X-9 and X-10 it is not currently known exactly how many days after application of the herbicide the phytotoxicity on the plants was measured.

| SMILES | pest or weed control at 8 g/ha ([1]; 8 g/ha) [%] | pest or weed control at 30 g/ha [1] [%] | pest or weed control at 250 g/ha [1] [%] | plant injury at 125 g/ha [2] [%] | plant injury at 125 g/ha [3] [%] | plant injury at 125 g/ha [4] [%] | plant injury at 125 g/ha [5] [%] | plant injury at 30 g/ha [6] [%] | plant injury at 30 g/ha [7] [%] | plant injury at 30 g/ha [8] [%] | plant injury at 30 g/ha [9] [%] | pest or weed control at 30 g/ha [10] [%] | pest or weed control at 30 g/ha [11] [%] | pest or weed control at 30 g/ha [12] [%] | pest or weed control at 30 g/ha [13] [%] | pest or weed control at 30 g/ha [14] [%] | pest or weed control at 30 g/ha [15] [%] | pest or weed control at 30 g/ha [16] [%] |
| --- | --- | --- | --- | --- | --- | --- | --- | --- | --- | --- | --- | --- | --- | --- | --- | --- | --- | --- |
| CC#Cc1cc(Cl)c(C2C(=O)CC3(CCOCC3)CC2=O)c(OC)c1 [Compound A-20, 9-(2-Chloro-6-methoxy-4-prop-1-ynyl-phenyl)-3-oxa-spiro[5.5]undecane-8,10-dione] | 90 | 100 | 100 |  |  |  |  |  |  |  |  |  |  |  |  |  |  |  |
| CC#Cc1cc(C)c(C2C(=O)CC(CC3CCOCC3)CC2=O)c(C)c1 (stereo not drawn) [Compound A-9] |  |  | 90 | 20 | 80 | 20 | 10 | 0 | 50 | 60 | 60 | 80 | 70 | 60 | 100 | 80 | 90 | 100 |
| Cc1cc(C#CCl)cc(C)c1C1C(=O)CC(CC2CCOCC2)CC1=O (stereo not drawn) [Compound A-8] |  |  | 90 |  |  |  |  | 30 | 70 | 50 | 50 | 80 | 70 | 40 | 100 | 90 | 90 | 100 |
| CC#Cc1cc(C)c(C2C(=O)CC(CCSC)CC2=O)c(C)c1 (stereo not drawn) [Compound A-21, 2-(2,6-Dimethyl-4-prop-1-ynyl-phenyl)-5-(2-methylsulfanyl-ethyl)cyclohexane-1,3-dione] |  | 70 | 100 |  |  |  |  |  |  |  |  |  |  |  |  |  |  |  |

From US9615577B2, “Herbicidally active cyclic dione compounds, or derivatives therefor, substituted by a phenyl which has an alkynyl-containing substituent” (Syngenta Limited, priority 2012, dated 2017)
